Data on one molecule can be found in patent publication US9120784B2, “1,3,4-oxadiazoles-2-thio azetidine derivatives as sphingosine-1 phosphate receptors modulators” (Allergan, Inc., priority 2012, dated 2015).

Structures are written as SMILES.

This assay has as its target T1, human S1P1 receptor (Homo sapiens, UniProt P21453).
T1 construct: expressed in transfected cells; membranes used
Nature of the assay: GTP γ35S binding assay for S1P1 activity. The assay is classed as biochemical. To be noted: membranes of cells stably expressing the S1P1 receptor, test compound 0.08 to 5,000 nM, read-out: S1P1 EC50 (nM) % inhibition. The method, then:
Compounds were synthesized and tested for S1P1 activity using the GTP γ^35S binding assay. These compounds may be assessed for their ability to activate or block activation of the human S1P1 receptor in cells stably expressing the S1P1 receptor.
GTP γ^35S binding was measured in the medium containing (mM) HEPES 25, pH 7.4, MgCl2 10, NaCl 100, dithiothreitol 0.5, digitonin 0.003%, 0.2 nM GTP γ^35S, and 5 μg membrane protein in a volume of 150 μl. Test compounds were included in the concentration range from 0.08 to 5,000 nM unless indicated otherwise. Membranes were incubated with 100 μM 5′-adenylylimidodiphosphate for 30 min, and subsequently with 10 μM GDP for 10 min on ice. Drug, solutions and membrane were mixed, and then reactions were initiated by adding GTP γ^35S and continued for 30 min at 25° C. Reaction mixtures were filtered over Whatman CF/B filters under vacuum, and washed three times with 3 mL of ice-cold buffer (HEPES 25, pH7.4, MgCl2 10 and NaCl 100). Filters were dried and mixed with scintillant, and counted for ^35S activity using […]. Agonist-induced GTP γ^35S binding was obtained by subtracting that in the absence of agonist. Binding data were analyzed using a non-linear regression method. In case of antagonist assay, the reaction mixture contained 10 nM […] in the presence of test antagonist at concentrations ranging from 0.08 to 5000 nM.

T1 sequence (P21453 whole entry): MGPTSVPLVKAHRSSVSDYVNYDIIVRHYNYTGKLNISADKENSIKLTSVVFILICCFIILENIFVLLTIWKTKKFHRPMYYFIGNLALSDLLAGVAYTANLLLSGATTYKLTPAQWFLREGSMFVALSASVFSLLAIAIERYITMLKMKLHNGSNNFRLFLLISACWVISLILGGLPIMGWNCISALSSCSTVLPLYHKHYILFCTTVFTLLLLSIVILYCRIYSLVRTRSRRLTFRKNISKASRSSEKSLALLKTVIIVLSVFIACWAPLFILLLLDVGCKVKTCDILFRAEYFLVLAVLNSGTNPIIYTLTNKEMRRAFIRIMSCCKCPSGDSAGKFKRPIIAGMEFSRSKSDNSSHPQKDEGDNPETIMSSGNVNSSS

Broadly, the EC50 is the concentration that produces a half-maximal response. On to `Cc1ccc(-c2nnc(SC(C)c3ccc(CN4CC(C(=O)O)C4)cc3)o2)cc1C` (stereo not shown) [Compound 1, 1-[4-(1-{[5-(3,4-Dimethylphenyl)-1,3,4-oxadiazol-2-yl]thio}ethyl)benzyl]azetidine-3-carboxylic acid], for which the EC50 came to 22.9 nM.
